From ChEMBL document CHEMBL3627610 (Eur J Med Chem, 2015)
The source made the active and inactive calls. The rule behind the calls is not given here.

Experiments:
Xenopus laevis [1] = species: Xenopus laevis; assay: Antagonist activity at melatonin receptor in Xenopus laevis melanophores assessed as effect on pigment aggregation at 10^-4 M after 60 mins by microtiter plate reader assay
Xenopus laevis [2] = species: Xenopus laevis; assay: Agonist activity at melatonin receptor in Xenopus laevis melanophores assessed as effect on pigment aggregation at 10^-5 M after 60 mins by microtiter plate reader assay
[3] = Agonist activity at melatonin receptor in Xenopus laevis melanophores assessed as effect on pigment aggregation after 60 mins by microtiter plate reader assay
Xenopus laevis [4] = species: Xenopus laevis; assay: Agonist activity at melatonin receptor in Xenopus laevis melanophores assessed as effect on pigment aggregation at 10^-12 to 10^-5 M after 60 mins by microtiter plate reader assay
[5] = target: Melatonin receptor type 1A (Homo sapiens, UniProt P48039); assay: Displacement of 2-[125I]iodomelatonin from human recombinant MT1 expressed in CHO cell membranes incubated for 60 mins by liquid scintillation spectrometry
[6] = target: T1, Melatonin receptor type 1B (Homo sapiens, UniProt P49286); assay: Displacement of 2-[125I]iodomelatonin from human recombinant MT2 expressed in CHO cell membranes incubated for 120 mins by liquid scintillation spectrometry
T1 sequence (P49286 whole entry): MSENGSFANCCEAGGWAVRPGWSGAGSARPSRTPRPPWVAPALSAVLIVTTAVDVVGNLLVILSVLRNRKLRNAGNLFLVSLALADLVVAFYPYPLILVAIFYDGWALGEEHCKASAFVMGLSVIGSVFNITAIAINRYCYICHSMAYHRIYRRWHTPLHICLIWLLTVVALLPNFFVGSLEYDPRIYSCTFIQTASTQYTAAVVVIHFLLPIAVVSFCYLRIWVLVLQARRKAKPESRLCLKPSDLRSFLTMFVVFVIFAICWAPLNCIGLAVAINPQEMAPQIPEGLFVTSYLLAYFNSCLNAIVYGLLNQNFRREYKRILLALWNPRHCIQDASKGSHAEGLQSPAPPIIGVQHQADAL

Chain of Melatonin receptor type 1A (P48039 whole entry): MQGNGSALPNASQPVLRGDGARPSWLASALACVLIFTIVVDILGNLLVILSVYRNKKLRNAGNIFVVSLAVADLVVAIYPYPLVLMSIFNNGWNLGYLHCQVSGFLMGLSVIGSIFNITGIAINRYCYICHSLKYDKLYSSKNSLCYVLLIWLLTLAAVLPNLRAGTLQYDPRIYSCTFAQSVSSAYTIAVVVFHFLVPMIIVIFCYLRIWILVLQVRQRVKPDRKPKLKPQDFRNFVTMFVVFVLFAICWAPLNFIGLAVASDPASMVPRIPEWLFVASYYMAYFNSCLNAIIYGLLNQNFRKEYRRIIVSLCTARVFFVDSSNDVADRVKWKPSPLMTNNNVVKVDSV

Row | Structure (SMILES) | inhibition (Xenopus laevis [1]) | Activity (Xenopus laevis [2]) | EC50 [3] [nM] | Emax (Xenopus laevis [4]) [%] | Ki [5] [nM] | Ki [6] [nM]
1 | COc1ccc2c(CCCNC(C)=O)cc(=O)oc2c1 | Active | inactive | – | – | – | –
2 | COc1ccc2[nH]cc(CCNC(C)=O)c2c1 [MELATONIN] | – | – | 0.074 | 100 | – | –
3 | COc1ccc2oc(=O)cc(CCNC(C)=O)c2c1 | Active | – | 118 | 89 | 13 | 3.4
